The record followed here is ChEMBL document CHEMBL1201862, “PubChem BioAssay data set” (2004).

The structures appear in SMILES notation.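 Test compounds were applied to cells in 96-well plates for 48 hours at 5 doses. Here, GI50 denotes the concentration required for 50% inhibition of growth.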 The source made the active and inactive calls. Cut-off read from the data, not from the text of the source: active = GI50 up to about 1.1 µM and inactive = higher. Where only a bound is given, the exact number is not on record here.

Among the test systems are SK-MEL-28; SF-268; SF-295; SR; A498; Hs-578T; UO-31; RPMI-8226; NCI-H23; DU-145; MDA-N; 786-0; A549; SNB-19; SK-MEL-2; U-251; BT-549; MDA-MB-231; NCI-H460; CCRF-CEM.
Test in all cases: NCI tumour cell line growth inhibition, 48 h

Regarding `N#C/C(=C\Nc1ccccn1)C(=O)C1CC1`, the GI50 with SK-MEL-28, with SF-268, with SF-295, in the assay on SR, in the assay with A498 and with Hs-578T was > 100 µM (inactive) each time. The GI50 in the assay on UO-31, in the assay with RPMI-8226, with NCI-H23, in the assay with DU-145, in the assay with MDA-N and in the assay with 786-0 was > 100 µM (inactive) throughout. For the same molecule, the GI50 in the assay on A549, with SNB-19, in the assay with SK-MEL-2, in the assay with U-251, in the assay with BT-549 and in the assay on MDA-MB-231 was > 100 µM (inactive) throughout. Moreover, the GI50 with NCI-H460 is > 100 µM (inactive); in the assay on CCRF-CEM it was 76.9 µM (inactive).
For the molecule `COc1ccc([N+](=O)[O-])c2c(NCCCN(C)C)c(C)c(C)nc12`, the GI50 in the assay on SK-MEL-28 is > 100 µM (inactive); in the assay on SF-268, > 100 µM (inactive); in the assay with SF-295, 90.8 µM (inactive); in the assay on SR, 14.3 µM (inactive); in the assay with A498, > 100 µM (inactive); with Hs-578T, > 100 µM (inactive). The GI50 in the assay on UO-31 was > 100 µM (inactive); in the assay with RPMI-8226, 31.8 µM (inactive); in the assay with NCI-H23, 44.8 µM (inactive); with DU-145 it was > 100 µM (inactive); with MDA-N, > 100 µM (inactive); with 786-0 it was > 100 µM (inactive). The GI50 in the assay with A549 was 99.3 µM (inactive); in the assay on SNB-19, 44.8 µM (inactive); in the assay on SK-MEL-2, > 100 µM (inactive); in the assay with U-251, > 100 µM (inactive); in the assay with BT-549, 56.6 µM (inactive); in the assay with MDA-MB-231, 57.5 µM (inactive). For the same molecule, the GI50 in the assay with NCI-H460 was 34.4 µM (inactive); in the assay with CCRF-CEM, > 100 µM (inactive).
Turning to `Cc1ccc2c(c1)nc(N)n[n+]2[O-]`, the GI50 in the assay with SK-MEL-28, in the assay with SF-268, in the assay on SF-295, with SR, with A498 and in the assay with Hs-578T was > 100 µM (inactive) each time. The GI50 in the assay with UO-31, in the assay on RPMI-8226, in the assay on NCI-H23, with DU-145, with MDA-N and in the assay with 786-0 was > 100 µM (inactive) in each case. Besides, the GI50 in the assay with A549, with SNB-19, in the assay with SK-MEL-2, in the assay on U-251, in the assay on BT-549 and with MDA-MB-231 was > 100 µM (inactive) in each case. The GI50 in the assay on NCI-H460 and with CCRF-CEM was > 100 µM (inactive) in each case.
On to `OCCCCn1cc(Cn2ncc3c(SCc4ccccc4)ncnc32)nn1`, for which the GI50 in the assay with SK-MEL-28 is 51.2 µM (inactive); with SF-268, 63.1 µM (inactive); with SF-295, 28.7 µM (inactive); in the assay on SR, 27.7 µM (inactive); in the assay on A498, 43.5 µM (inactive); in the assay on Hs-578T, 26 µM (inactive). Besides, the GI50 is 31.1 µM (inactive) in the assay on UO-31; 40.9 µM (inactive) with RPMI-8226; 54.2 µM (inactive) with NCI-H23; 58.5 µM (inactive) in the assay on DU-145; 15.7 µM (inactive) in the assay on MDA-N; 63.4 µM (inactive) in the assay on 786-0. The GI50 in the assay with A549 was 42.7 µM (inactive); with SNB-19 it was 65.5 µM (inactive); in the assay with SK-MEL-2, 76.7 µM (inactive); with U-251 it was 39.2 µM (inactive); with BT-549, 34.7 µM (inactive); in the assay with MDA-MB-231, 75.7 µM (inactive). Moreover, the results for the GI50 in the assay with NCI-H460 and with CCRF-CEM were 41.4 µM (inactive) and 45.5 µM (inactive), respectively.
On to `COC(O)C(=O)c1c2c(cc3c1CCC3)CCC2` (stereo not given), for which the GI50 in the assay on SK-MEL-28 is > 100 µM (inactive); in the assay with SF-268, > 100 µM (inactive); in the assay on SF-295 it was > 100 µM (inactive); in the assay with SR, 66.2 µM (inactive); with A498 it was > 100 µM (inactive); in the assay on Hs-578T it was > 100 µM (inactive). The GI50 was > 100 µM (inactive) with UO-31; 55.1 µM (inactive) in the assay with RPMI-8226; > 100 µM (inactive) with NCI-H23; > 100 µM (inactive) in the assay on DU-145; > 100 µM (inactive) with MDA-N; > 100 µM (inactive) in the assay with 786-0. Also, the GI50 in the assay with A549, in the assay with SNB-19, in the assay on SK-MEL-2, in the assay on U-251, with BT-549 and with MDA-MB-231 was > 100 µM (inactive) each time. The GI50 was > 100 µM (inactive) in the assay on NCI-H460 and 55 µM (inactive) with CCRF-CEM.
Consider `N#CC(C#N)=Cc1c(O)ccc2ccccc12`, for which the GI50 in the assay on SK-MEL-28 is 14.5 µM (inactive); with SF-268 it was 11.9 µM (inactive); in the assay on SF-295, 15 µM (inactive); with SR, 4.17 µM (inactive); in the assay with A498, 16 µM (inactive); with Hs-578T, 17.3 µM (inactive). Moreover, the GI50 was 14 µM (inactive) with UO-31; 11.9 µM (inactive) with RPMI-8226; 12.2 µM (inactive) in the assay on NCI-H23; 14.2 µM (inactive) in the assay on DU-145; 12.7 µM (inactive) in the assay with MDA-N; 13.3 µM (inactive) in the assay with 786-0. Further, the GI50 was 17.1 µM (inactive) in the assay with A549; 15.4 µM (inactive) with SNB-19; 13.7 µM (inactive) in the assay with SK-MEL-2; 15.9 µM (inactive) in the assay on U-251; 16.7 µM (inactive) with BT-549; 13.2 µM (inactive) with MDA-MB-231. Moreover, the GI50 with NCI-H460 was 14.7 µM (inactive); in the assay on CCRF-CEM, 1.57 µM (inactive).
As for `COc1ccc2c(C(=O)c3c(C)n(CCN4CCOCC4)c4ccccc34)cccc2c1`, the GI50 in the assay on SK-MEL-28 is > 100 µM (inactive); in the assay with SF-268 it was 16.1 µM (inactive); in the assay on SF-295 it was 16.8 µM (inactive); with SR, 19.2 µM (inactive); with A498, 81.8 µM (inactive); in the assay on Hs-578T, 10.8 µM (inactive). The GI50 in the assay with UO-31 was 34 µM (inactive); with RPMI-8226, 24.7 µM (inactive); in the assay with NCI-H23, 18.8 µM (inactive); in the assay with DU-145 it was 38 µM (inactive); in the assay with MDA-N, 17.9 µM (inactive); with 786-0, 27.7 µM (inactive). The GI50 is 24.5 µM (inactive) in the assay with A549; 46.1 µM (inactive) in the assay on SNB-19; 21.3 µM (inactive) with SK-MEL-2; 15.3 µM (inactive) in the assay with U-251; 20.2 µM (inactive) in the assay with BT-549; 22.6 µM (inactive) in the assay with MDA-MB-231. Further, the GI50 in the assay on NCI-H460 is 29 µM (inactive); in the assay on CCRF-CEM, 2.77 µM (inactive).
For `CC(N/N=C(\S)N1CCCCCC1)c1cccnn1` (stereo not given), the GI50 in the assay with SK-MEL-28 was 0.482 µM (active); with SF-268, 0.337 µM (active); in the assay with SF-295 it was 0.403 µM (active); with SR, 0.132 µM (active); in the assay with A498 it was 0.764 µM (active); in the assay with Hs-578T, 13.2 µM (inactive). For the same molecule, the GI50 with UO-31 was 0.526 µM (active); in the assay on RPMI-8226 it was 0.155 µM (active); in the assay on NCI-H23, 0.254 µM (active); in the assay with DU-145, 0.579 µM (active); with MDA-N, 0.684 µM (active); with 786-0 it was 0.394 µM (active). The GI50 with A549 was 0.301 µM (active); in the assay on SNB-19 it was 0.381 µM (active); in the assay on SK-MEL-2 it was 1.27 µM (inactive); in the assay with U-251, 0.326 µM (active); with BT-549 it was 0.392 µM (active); in the assay on MDA-MB-231, 0.553 µM (active). Besides, the GI50 is 0.274 µM (active) in the assay on NCI-H460 and 0.112 µM (active) in the assay on CCRF-CEM.
`NC(=O)NC(=O)c1cccc(NC(=O)CI)c1`: the GI50 in the assay with SK-MEL-28 is 0.389 µM (active); with SF-268, 0.0254 µM (active); with SF-295, 0.274 µM (active); in the assay with SR, < 0.01 µM (active); in the assay on A498, 0.231 µM (active); in the assay with Hs-578T, 0.0398 µM (active). For the same molecule, the GI50 is 0.162 µM (active) with UO-31; < 0.0128 µM (active) with RPMI-8226; < 0.0212 µM (active) with NCI-H23; 0.0344 µM (active) in the assay with DU-145; < 0.01 µM (active) with MDA-N; < 0.01 µM (active) with 786-0. Also, the GI50 with A549 is 0.805 µM (active); in the assay with SNB-19, 0.646 µM (active); in the assay with SK-MEL-2, 0.0361 µM (active); in the assay on U-251, 0.0291 µM (active); with BT-549, 0.0473 µM (active); in the assay on MDA-MB-231 it was 0.0622 µM (active). Also, the GI50 is 0.0485 µM (active) with NCI-H460 and < 0.01 µM (active) in the assay on CCRF-CEM.
